Reference: US6875451B2, “Compositions and methods for the treatment of primary and metastatic neoplastic diseases using arsenic compounds” (PolaRx Biopharmaceuticals Inc., priority 1997, dated 2005)

Key:
Assay type in all cases: cell-based
[1] = tested on: A498; assay: SRB growth assay, 6 days exposure, renal cancer; details: A498, 6 days
Protocol: (§1) Arsenic trioxide (1 mg/ml, 10 mg/ampoule, manufactured by Taylor Pharmaceuticals, Decatur, Ill.) was tested at five concentrations each at 10-fold dilutions, i.e., 10^−5, 10^−6, 10^−7, 10^−8 and 10^−9 μg/ml.
(§2) The in vitro tests were performed by incubating the test cells in the presence of the indicated concentration of arsenic trioxide under standard culture conditions for a designated period of time, which is followed by a sulforhodamine B (SRB) protein assay to estimate cell viability or growth. The cell lines are organized into subpanels according to the origin of the cell lines, e.g., leukemia, breast cancer, etc. A description of the cell lines and method of testing is described in Monk et al. (1997, Anticancer Drug Des. 12:533-41) and Weinstein et al., (1997, Science 275:343-9), which are incorporated herein in their entirety.
(§3) The measurement of an effect is expressed in Percentage Growth (PG). The measured effect of the compound on a cell line is calculated according to one or the other of the following two expressions: If (Mean ODtest−Mean ODzero)≧0. then PG=100×(Mean ODtest−Mean ODzero)/(Mean ODctrl−Mean ODzero) If (Mean ODtest−Mean ODzero)<0. then PG=100×(Mean ODtest−Mean ODzero)/(Mean ODzero where: • Mean ODzero=the average of optical density measurements of SRB-derived color just before exposure of cells to the test compounds; • Mean ODtest=the average of optical density measurements of SRB-derived color after exposure of cells to the test compound for a designated period of time; and • Mean ODctrl=the average of optical density measurements of SRB-derived color after with no exposure of cells to the test compound for a designated period of time
(§4) The first two columns describe the subpanel (e.g., leukemia) and cell line (e.g., CCRF-CEM) involved. The next two columns list the Mean ODzero and Mean ODctrl; the next five columns list the Mean ODtest for each of five different concentrations. Each concentration is expressed as the log10 (molar or μg/ml). The next five columns list the calculated PGs for each concentration. The response parameters GI50, TGI and LC50 are interpolated values representing the concentrations at which the PG is +50, 0, and −50, respectively. Sometimes these response parameters cannot be obtained by interpolation. If, for instance, all of the PGs in a given row exceed +50, then none of the three parameters can be obtained by interpolation. In such a case, the value given for each response parameter is the highest concentration tested and is preceded by a “>” sign. This practice is extended similarly to the other possible situations where a response parameter cannot be obtained by interpolation.
(§5) In the first set, the cells from 56 different cancer cell lines were exposed to five concentrations of arsenic trioxide continuously for two days prior to performing the SRB assay. In the second set, the cells from 50 different cell lines (a subset of the first 56 cell lines, plus the renal cancer cell line 786-0) were exposed continuously for six days prior to the SRB assay.

[2] = tested on: TK-10; assay: SRB growth assay, 6 days exposure, renal cancer; details: TK-10, 6 days
Protocol: as §1, §2, §3, §4, §5

[3] = tested on: 786-O; assay: SRB growth assay, 6 days exposure, renal cancer; details: 786-0, 6 days
Protocol: as §1, §2, §3, §4, §5

[4] = tested on: RXF 393; assay: SRB growth assay, 6 days exposure, renal cancer; details: RXF393, 6 days
Protocol: as §1, §2, §3, §4, §5

[5] = tested on: S12C; assay: SRB growth assay, 6 days exposure, renal cancer
Protocol: as §1, §2, §3, §4, §5

[6] = tested on: HOP-92; assay: SRB growth assay, 6 days exposure, non-small cell lung cancer; details: HOP-92, 6 days
Protocol: as §1, §2, §3, §4, §5

[7] = tested on: NCI-H23; assay: as above; details: NCI-H23, 6 days
Protocol: as §1, §2, §3, §4, §5

[8] = tested on: EKVX; assay: as above
Protocol: as §1, §2, §3, §4, §5

[9] = read-out: LC50 (the source's name)

Substance: arsenic trioxide
- TGI [1]: 4.85E−06
- Mean Optical Densities ([1]; Log 10 Concentration −4.9): 0.025
- Percent Growth ([1]; Log 10 Concentration −4.9): −52%
- Mean Optical Densities ([1]; Log 10 Concentration −5.9): 0.558
- Percent Growth ([1]; Log 10 Concentration −5.9): 73%
- Mean Optical Densities ([1]; Log 10 Concentration −6.9): 0.837
- Percent Growth ([1]; Log 10 Concentration −6.9): 114%
- Mean Optical Densities ([1]; Log 10 Concentration −7.9): 0.764
- Percent Growth ([1]; Log 10 Concentration −7.9): 103%
- Mean Optical Densities ([1]; Log 10 Concentration −8.9): 0.826
- Percent Growth ([1]; Log 10 Concentration −8.9): 112%
- TGI [2]: >1.26E−05
- Mean Optical Densities ([2]; Log 10 Concentration −4.9): 0.239
- Percent Growth ([2]; Log 10 Concentration −4.9): 13%
- Mean Optical Densities ([2]; Log 10 Concentration −5.9): 1.103
- Percent Growth ([2]; Log 10 Concentration −5.9): 82%
- Mean Optical Densities ([2]; Log 10 Concentration −6.9): 1.334
- Percent Growth ([2]; Log 10 Concentration −6.9): 100%
- Mean Optical Densities ([2]; Log 10 Concentration −7.9): 1.268
- Percent Growth ([2]; Log 10 Concentration −7.9): 95%
- Mean Optical Densities ([2]; Log 10 Concentration −8.9): 1.356
- Percent Growth ([2]; Log 10 Concentration −8.9): 102%
- CC50 [2, 9]: > 12.6 µM
- TGI [3]: 2.77E−06
- Mean Optical Densities ([3]; Log 10 Concentration −4.9): −0.003
- Percent Growth ([3]; Log 10 Concentration −4.9): −100%
- Mean Optical Densities ([3]; Log 10 Concentration −5.9): 0.832
- Percent Growth ([3]; Log 10 Concentration −5.9): 52%
- Mean Optical Densities ([3]; Log 10 Concentration −6.9): 1.786
- Percent Growth ([3]; Log 10 Concentration −6.9): 113%
- Mean Optical Densities ([3]; Log 10 Concentration −7.9): 1.821
- Percent Growth ([3]; Log 10 Concentration −7.9): 116%
- Mean Optical Densities ([3]; Log 10 Concentration −8.9): 1.582
- Percent Growth ([3]; Log 10 Concentration −8.9): 100%
- TGI [4]: 2.96E−06
- Mean Optical Densities ([4]; Log 10 Concentration −4.9): 0.017
- Percent Growth ([4]; Log 10 Concentration −4.9): −91%
- Mean Optical Densities ([4]; Log 10 Concentration −5.9): 0.909
- Percent Growth ([4]; Log 10 Concentration −5.9): 54%
- Mean Optical Densities ([4]; Log 10 Concentration −6.9): 1.727
- Percent Growth ([4]; Log 10 Concentration −6.9): 116%
- Mean Optical Densities ([4]; Log 10 Concentration −7.9): 1.301
- Percent Growth ([4]; Log 10 Concentration −7.9): 84%
- Mean Optical Densities ([4]; Log 10 Concentration −8.9): 1.327
- Percent Growth ([4]; Log 10 Concentration −8.9): 86%
- LC50 (concentration killing 50% of cells) [5]: > 12.6 µM
- TGI [5]: 5.67E−06
- Mean Optical Densities ([5]; Log 10 Concentration −4.9): 0.013
- Percent Growth ([5]; Log 10 Concentration −4.9): −46%
- Mean Optical Densities ([5]; Log 10 Concentration −5.9): 0.829
- Percent Growth ([5]; Log 10 Concentration −5.9): 86%
- Mean Optical Densities ([5]; Log 10 Concentration −6.9): 1.113
- Percent Growth ([5]; Log 10 Concentration −6.9): 117%
- Mean Optical Densities ([5]; Log 10 Concentration −7.9): 1.141
- Percent Growth ([5]; Log 10 Concentration −7.9): 120%
- Mean Optical Densities ([5]; Log 10 Concentration −8.9): 0.882
- Percent Growth ([5]; Log 10 Concentration −8.9): 92%
- Mean Optical Densities ([6]; Log 10 Concentration −4.9): 0.079
- Percent Growth ([6]; Log 10 Concentration −4.9): −31%
- Mean Optical Densities ([6]; Log 10 Concentration −5.9): 1.229
- Percent Growth ([6]; Log 10 Concentration −5.9): 95%
- Mean Optical Densities ([6]; Log 10 Concentration −6.9): 1.319
- Percent Growth ([6]; Log 10 Concentration −6.9): 102%
- Mean Optical Densities ([6]; Log 10 Concentration −7.9): 1.834
- Percent Growth ([6]; Log 10 Concentration −7.9): 146%
- Mean Optical Densities ([6]; Log 10 Concentration −8.9): 1.455
- Percent Growth ([6]; Log 10 Concentration −8.9): 114%
- CC50 [6, 9]: > 12.6 µM
- Mean Optical Densities ([7]; Log 10 Concentration −4.9): 0.086
- Percent Growth ([7]; Log 10 Concentration −4.9): 1%
- Mean Optical Densities ([7]; Log 10 Concentration −5.9): 1.303
- Percent Growth ([7]; Log 10 Concentration −5.9): 79%
- Mean Optical Densities ([7]; Log 10 Concentration −6.9): 1.872
- Percent Growth ([7]; Log 10 Concentration −6.9): 116%
- Mean Optical Densities ([7]; Log 10 Concentration −7.9): 1.814
- Percent Growth ([7]; Log 10 Concentration −7.9): 112%
- Mean Optical Densities ([7]; Log 10 Concentration −8.9): 1.818
- Percent Growth ([7]; Log 10 Concentration −8.9): 113%
- CC50 [7, 9]: > 12.6 µM
- TGI [8]: 4.22E−06
- Mean Optical Densities ([8]; Log 10 Concentration −4.9): 0.014
- Percent Growth ([8]; Log 10 Concentration −4.9): −53%
- Mean Optical Densities ([8]; Log 10 Concentration −5.9): 0.414
- Percent Growth ([8]; Log 10 Concentration −5.9): 59%
- Mean Optical Densities ([8]; Log 10 Concentration −6.9): 0.628
- Percent Growth ([8]; Log 10 Concentration −6.9): 92%
- Mean Optical Densities ([8]; Log 10 Concentration −7.9): 0.601
- Percent Growth ([8]; Log 10 Concentration −7.9): 88%
- Mean Optical Densities ([8]; Log 10 Concentration −8.9): 0.573
- Percent Growth ([8]; Log 10 Concentration −8.9): 83%
